Reference: PubChem BioAssay AID2060885 (Molecular Pharmacology Branch, DTP, NCI, 2025)

Test system: NCI-H23 complex spheroids with HUVEC/MSC, viability
Test: Anticancer human tumor NCI-H23 cell line growth inhibition [RAS];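 further: spheroids exposed to compound for 7 days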;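 on viability, T/C: 100% = DMSO vehicle control viability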
Settings: for IC50: curve of first compound; for viability, T/C: stronger effect = lower value
Outline: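 Multi-cell-type spheroids: tumor cells plus HUVEC endothelial cells and mesenchymal stem cells. RAS-pathway inhibitors were combined with targeted agents, each dosed in half-log steps down from clinical Cmax, or from 10 microM when Cmax was unknown.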

[1] = second compound 0.000949 µM, first compound 0.0316 µM
[2] = second compound 0.000949 µM, first compound 0.1 µM
[3] = second compound 0.000949 µM, first compound 0.316 µM
[4] = second compound 0.000949 µM, first compound 1 µM
[5] = second compound 0.000949 µM, first compound 3.16 µM
[6] = second compound 0.000949 µM, first compound 10 µM
[7] = second compound 0.003 µM, first compound 0.0316 µM
[8] = second compound 0.003 µM, first compound 0.1 µM
[9] = second compound 0.003 µM, first compound 0.316 µM
[10] = second compound 0.003 µM, first compound 1 µM
[11] = second compound 0.003 µM, first compound 3.16 µM
[12] = second compound 0.003 µM, first compound 10 µM
[13] = second compound 0.00949 µM, first compound 0.0316 µM
[14] = second compound 0.00949 µM, first compound 0.1 µM
[15] = second compound 0.00949 µM, first compound 0.316 µM
[16] = second compound 0.00949 µM, first compound 1 µM
[17] = second compound 0.00949 µM, first compound 3.16 µM
[18] = second compound 0.00949 µM, first compound 10 µM
[19] = second compound 0.03 µM, first compound 0.0316 µM
[20] = second compound 0.03 µM, first compound 0.1 µM
[21] = second compound 0.03 µM, first compound 0.316 µM
[22] = second compound 0.03 µM, first compound 1 µM
[23] = second compound 0.03 µM, first compound 3.16 µM
[24] = second compound 0.03 µM, first compound 10 µM
[25] = second compound 0.0949 µM, first compound 0.0316 µM
[26] = second compound 0.0949 µM, first compound 0.1 µM
[27] = second compound 0.0949 µM, first compound 0.316 µM
[28] = second compound 0.0949 µM, first compound 1 µM
[29] = second compound 0.0949 µM, first compound 3.16 µM
[30] = second compound 0.0949 µM, first compound 10 µM
[31] = second compound 0.3 µM, first compound 0.0316 µM
[32] = second compound 0.3 µM, first compound 0.1 µM
[33] = second compound 0.3 µM, first compound 0.316 µM
[34] = second compound 0.3 µM, first compound 1 µM
[35] = second compound 0.3 µM, first compound 3.16 µM
[36] = second compound 0.3 µM, first compound 10 µM

CC(C)NCC(C(=O)N1CCN(c2ncnc3c2C(C)CC3O)CC1)c1ccc(Cl)cc1 (stereo unspecified) + CCn1c(-c2cc(N3CCN(C)CC3)cnc2C(C)OC)c2c3cc(ccc31)-c1csc(n1)CC(NC(=O)C1CC1C)C(=O)N1CCCC(N1)C(=O)OCC(C)(C)C2
IC50 (second compound 0.000949 µM): < 0.0316 µM
IC50 (second compound 0.003 µM): < 0.0316 µM
IC50 (second compound 0.00949 µM): < 0.0316 µM
IC50 (second compound 0.03 µM): < 0.0316 µM
IC50 (second compound 0.0949 µM): < 0.0316 µM
IC50 (second compound 0.3 µM): < 0.0316 µM
viability, T/C [1]: 44%
viability, T/C [2]: 47.4%
viability, T/C [3]: 32.9%
viability, T/C [4]: 34.7%
viability, T/C [5]: 26.2%
viability, T/C [6]: 15.2%
viability, T/C [7]: 37.9%
viability, T/C [8]: 27.3%
viability, T/C [9]: 24.2%
viability, T/C [10]: 22.6%
viability, T/C [11]: 22%
viability, T/C [12]: 13.8%
viability, T/C [13]: 30.8%
viability, T/C [14]: 31.7%
viability, T/C [15]: 30.4%
viability, T/C [16]: 22.2%
viability, T/C [17]: 17.1%
viability, T/C [18]: 10.4%
viability, T/C [19]: 29.5%
viability, T/C [20]: 23.8%
viability, T/C [21]: 21.5%
viability, T/C [22]: 19.6%
viability, T/C [23]: 12.1%
viability, T/C [24]: 12.1%
viability, T/C [25]: 18.6%
viability, T/C [26]: 18.6%
viability, T/C [27]: 17.8%
viability, T/C [28]: 17.4%
viability, T/C [29]: 10.3%
viability, T/C [30]: 9.96%
viability, T/C [31]: 18.1%
viability, T/C [32]: 15.7%
viability, T/C [33]: 14.9%
viability, T/C [34]: 10.6%
viability, T/C [35]: 9.62%
viability, T/C [36]: 9.02%

CC(C)n1nc(-c2ccc3oc(N)nc3c2)c2c(N)ncnc21 + CCn1c(-c2cc(N3CCN(C)CC3)cnc2C(C)OC)c2c3cc(ccc31)-c1csc(n1)CC(NC(=O)C1CC1C)C(=O)N1CCCC(N1)C(=O)OCC(C)(C)C2
IC50 (second compound 0.000949 µM): < 0.000316 µM
IC50 (second compound 0.003 µM): < 0.000316 µM
IC50 (second compound 0.00949 µM): < 0.000316 µM
IC50 (second compound 0.03 µM): < 0.000316 µM
IC50 (second compound 0.0949 µM): < 0.000316 µM
IC50 (second compound 0.3 µM): < 0.000316 µM
viability, T/C (second compound 0.000949 µM, first compound 0.000316 µM): 44.2%
viability, T/C (second compound 0.000949 µM, first compound 0.001 µM): 41.7%
viability, T/C (second compound 0.000949 µM, first compound 0.00316 µM): 24.1%
viability, T/C (second compound 0.000949 µM, first compound 0.01 µM): 30%
viability, T/C [1]: 24.2%
viability, T/C [2]: 13.5%
viability, T/C (second compound 0.003 µM, first compound 0.000316 µM): 32.4%
viability, T/C (second compound 0.003 µM, first compound 0.001 µM): 24.6%
viability, T/C (second compound 0.003 µM, first compound 0.00316 µM): 25.8%
viability, T/C (second compound 0.003 µM, first compound 0.01 µM): 21.6%
viability, T/C [7]: 19%
viability, T/C [8]: 9.18%
viability, T/C (second compound 0.00949 µM, first compound 0.000316 µM): 31.2%
viability, T/C (second compound 0.00949 µM, first compound 0.001 µM): 26.8%
viability, T/C (second compound 0.00949 µM, first compound 0.00316 µM): 24.1%
viability, T/C (second compound 0.00949 µM, first compound 0.01 µM): 20%
viability, T/C [13]: 16.4%
viability, T/C [14]: 11.4%
viability, T/C (second compound 0.03 µM, first compound 0.000316 µM): 24.5%
viability, T/C (second compound 0.03 µM, first compound 0.001 µM): 25.2%
viability, T/C (second compound 0.03 µM, first compound 0.00316 µM): 22.7%
viability, T/C (second compound 0.03 µM, first compound 0.01 µM): 19%
viability, T/C [19]: 11.7%
viability, T/C [20]: 11.6%
viability, T/C (second compound 0.0949 µM, first compound 0.000316 µM): 19.2%
viability, T/C (second compound 0.0949 µM, first compound 0.001 µM): 19.4%
viability, T/C (second compound 0.0949 µM, first compound 0.00316 µM): 19.2%
viability, T/C (second compound 0.0949 µM, first compound 0.01 µM): 16.6%
viability, T/C [25]: 9.51%
viability, T/C [26]: 11.2%
viability, T/C (second compound 0.3 µM, first compound 0.000316 µM): 17.9%
viability, T/C (second compound 0.3 µM, first compound 0.001 µM): 17%
viability, T/C (second compound 0.3 µM, first compound 0.00316 µM): 16.4%
viability, T/C (second compound 0.3 µM, first compound 0.01 µM): 13.4%
viability, T/C [31]: 13.5%
viability, T/C [32]: 11.5%

C[C@@H](NC(=O)c1ncnc(N)c1Cl)c1ncc(C(=O)Nc2cc(C(F)(F)F)c(Cl)cn2)s1 + CCn1c(-c2cc(N3CCN(C)CC3)cnc2C(C)OC)c2c3cc(ccc31)-c1csc(n1)CC(NC(=O)C1CC1C)C(=O)N1CCCC(N1)C(=O)OCC(C)(C)C2
IC50 (second compound 0.000949 µM): 1.53 µM
IC50 (second compound 0.003 µM): < 0.0316 µM
IC50 (second compound 0.00949 µM): < 0.0316 µM
IC50 (second compound 0.03 µM): < 0.0316 µM
IC50 (second compound 0.0949 µM): < 0.0316 µM
IC50 (second compound 0.3 µM): < 0.0316 µM
viability, T/C [1]: 51.5%
viability, T/C [2]: 54.4%
viability, T/C [3]: 46.1%
viability, T/C [4]: 48.4%
viability, T/C [5]: 49.9%
viability, T/C [6]: 25%
viability, T/C [7]: 39.7%
viability, T/C [8]: 33%
viability, T/C [9]: 33.9%
viability, T/C [10]: 37.2%
viability, T/C [11]: 38.5%
viability, T/C [12]: 24.6%
viability, T/C [13]: 35.3%
viability, T/C [14]: 29.5%
viability, T/C [15]: 32.5%
viability, T/C [16]: 32.8%
viability, T/C [17]: 31.7%
viability, T/C [18]: 27%
viability, T/C [19]: 29.4%
viability, T/C [20]: 27.8%
viability, T/C [21]: 31.3%
viability, T/C [22]: 30.7%
viability, T/C [23]: 29.3%
viability, T/C [24]: 25.2%
viability, T/C [25]: 21.1%
viability, T/C [26]: 22.3%
viability, T/C [27]: 26.3%
viability, T/C [28]: 28.4%
viability, T/C [29]: 21.8%
viability, T/C [30]: 24.2%
viability, T/C [31]: 22.6%
viability, T/C [32]: 24.4%
viability, T/C [33]: 24.2%
viability, T/C [34]: 22.7%
viability, T/C [35]: 25.4%
viability, T/C [36]: 21.9%
